Test results as given in patent US20240327372A1, “PREPARATION OF PHENE[…] […] STEREOISOMERS THEREOF AND PRECURSORS THEREOF” (priority 2022, published 2024).
Read-outs that look alike come from different tables or passages of the source.

Assays:
[1] = Pharmacokinetics of methylone after single IV, PO or IP administration, plasma LC-MS/MS; format: in vivo, male Sprague Dawley rats; details: for MRT last: read-out: MRT0-last; for Cmax: rat plasma
Description: The pharmacokinetic properties of methylone after a single administration intravenously (IV), intraperitoneally (IP), or by oral gavage (PO) in male Sprague Dawley rats has been determined using a liquid chromatography tandem mass spectrometry (LC-MS/MS) method that has been established and validated for methylone in the rat. Rats (n=3 per group) received a single dose of methylone: 5 mg/kg IV, 15 mg/kg IP, or 15 mg/kg PO.
To investigate whether the prodrug extends the half-life or alters other basic pharmacokinetic properties of methylone (e.g., Cmax or Tmax), rats are treated with each prodrug IV, IP, or PO. For each compound, three groups of rats are treated as follows: For group 1, a single dose of methylone is administered to 3 male Sprague-Dawley rats by IV bolus at 5 mg/kg. For group 2, a single dose of methylone is administered to 3 male Sprague-Dawley rats by oral gavage (PO) at 15 mg/kg. For group 3, a single dose of methylone is administered to 3 male Sprague-Dawley rats by IP at 15 mg/kg. For all groups, blood samples are collected from each animal at 0.083, 0.25, 0.5, 1, 2, 4, 8, 12, and 24 hours post-dose for the determination of plasma concentrations. The plasma concentrations are quantified by liquid chromatography tandem mass spectrometry (LC-MS/MS). The bioanalytical assay has been established and validated, providing a lower limit of quantification (LLOQ) of 1 ng/mL and an upper limit of quantification (ULOQ) of 3000 ng/mL for methylone. The plasma concentration-time data are analyzed using Phoenix WinNonlin (version 8.3) to characterize the PK properties of the analyte. The non-compartmental analysis model and the linear/log trapezoidal method are applied to calculating the PK parameters.

PTSD = details: clinical case series of 21 individuals; cited from earlier work
mouse model of PTSD = assay: Fear extinction in a mouse model of PTSD; format: in vivo; details: 30 mg/kg IP
Description: FIGS. 1A-1D: Methylone improves fear extinction recall in a mouse model of PTSD. (FIG. 1A) Schematic of experimental design. A single CS-US (tone-shock) pairing on day 1 was followed by 6 CS presentations in a novel context (context B). Methylone or saline vehicle was injected 30 min prior to extinction training on day 2. On day 3, the time spent freezing to the CS was quantified. […] (FIG. 1C) The time freezing before vs. during each of 6 cues on day 3 (to control for locomotor effects) are shown. There was a significant cue x drug interaction (F(5, 130)=2.409, p<0.05). […] N=12 for methylone group (30 mg/kg, IP, orange diamonds) and N=16 for saline control group (black squares). *p<0.05
Effective PTSD treatments facilitate the disassociation between a traumatic memory and the patient's fear response, making cues for the traumatic memory evoke less of a fear response. This is modeled in the mouse fear extinction paradigm which takes place over 3 days. On day 1 (fear conditioning), mice are trained to acquire a “traumatic memory,” namely associating the conditioned stimulus (CS, tone) to the unconditioned stimulus (US, foot shock). […] On day 3 (extinction recall), the mice are “asked” if that tone (CS) still elicits a fearful response, as measured by the time spent freezing when the tone is presented. […]

[2] = rat; Elmore et al. 2017; cited from earlier work
[3] = self-administration, healthy volunteers; cited from earlier work
[4] = tested on: rat forced swim test (FST); assay: Rat forced swim test (FST); format: in vivo
Description: All FST studies are performed and scored by an experimenter blind to treatment group and according to standard protocols. Briefly, rats are placed in a circular plexiglass container filled with water. Water temperature is maintained at 22-25° C. and changed for every animal. Day 1 (Training) consists of a 15 min acclimation trial, and Day 2 (Testing, 24 h later) consists of the 5 min test. A time sampling procedure is employed where animals are observed every 5 seconds for the duration of the test session (60 counts or 5 minutes) and scored for immobility (defined as the failure to struggle), swimming (defined as a circular movement around the tank), or climbing (defined as an upwards escape behavior). Data are expressed as the percent of the testing session (e.g., the number of immobility counts divided by 60). A p-value less than 0.05 indicates statistical significance after typical statistical analyses (e.g., unpaired t-test or ANOVA).
To determine that the prodrug and/or enantiomer has an antidepressant-like effect and to compare it to methylone, rats are treated with each compound 30 min prior to testing. Additional tests are run 24, 72, 168 hours post-dose or longer.
Racemic methylone (10 mg/kg, IP) has a maximal antidepressant-like effect in the rat forced swim test (FST), reducing immobility by nearly 100% compared to vehicle treated controls. To determine whether one enantiomer of methylone could mimic the robust antidepressant-like effect of racemic methylone, rats were treated with a single dose of racemic methylone, (R)-methylone, (S)-methylone (all 10 mg/kg, IP) or vehicle 30 min before testing in the FST. […] Therefore, all of the activity of methylone appears to be driven by the activity of one enantiomer ((S)-methylone).

open field test = details: 5, 10, 20 mg/kg, SC; Štefková et al. 2017; cited from earlier work
[5] = male, Sprague Dawley, rat, plasma, IP 15 mg/kg
[6] = male, Sprague Dawley, rat, plasma, IV 5 mg/kg
[7] = male, Sprague Dawley, rat, plasma, PO 15 mg/kg

Compound: CNC(C)C(=O)c1ccc2c(c1)OCO2 (stereo not shown) [Methylone, 3,4-methylenedioxy-N-methylacthinone]
- Tmax ([1]; IP 15 mg/kg): 0.250 ± 0.000 h
- AUC(0-t) [1, 5]: 4300 ± 1180 ng·h/mL
- half-life [1, 5]: 0.8 ± 0.169 h
- MRT last [1, 5]: 1.07 ± 0.211 h
- AUC(0-t) [1, 6]: 1200 ± 88.2 ng·h/mL
- C0 [1, 6]: 3020 ± 666 ng/mL
- clearance [1, 6]: 68.3 ± 5.4 mL/min/kg
- half-life [1, 6]: 0.362 ± 0.024 h
- MRT last [1, 6]: 0.439 ± 0.026 h
- Vd ([1]; male, Sprague Dawley, rat, plasma, IV 5 mg/kg, read-out: Vdss): 1.98 ± 0.23 L/kg
- AUC(0-t) [1, 7]: 2760 ± 657 ng·h/mL
- half-life [1, 7]: 3.23 ± 1.99 h
- MRT last [1, 7]: 2.99 ± 0.467 h
- Tmax ([1]; male, Sprague Dawley, rat, plasma, PO 15 mg/kg, read-out: Tmax): 1.33 ± 0.577 h
- Cmax ([1]; male, Sprague Dawley, IP 15 mg/kg): 4230 ± 514 ng/mL
- Cmax ([1]; male, Sprague Dawley, PO 15 mg/kg): 678 ± 243 ng/mL
- Patients with improved PTSD symptoms (PTSD): 81%
- Enhancement of fear extinction recall compared to saline controls (mouse model of PTSD; 30 min prior to extinction training): ~60%
- Freezing time during the first cue on day 3 (extinction recall) compared to saline (mouse model of PTSD; p<0.05): significantly reduced
- t1/2 [2]: 1 h
- Heart rate [3]: increase in heart rate
- Systolic and diastolic blood pressure [3]: significant increase
- Reduction of immobility compared to vehicle-treated controls ([4]; single dose 5 mg/kg): approximately 50%
- Reduction of immobility compared to vehicle-treated controls ([4]; single dose 15 mg/kg): ~100%
- Thigmotaxis (time spent hugging the perimeter of the open field) (open field test): reduce thigmotaxis
